Measurements as given in publication PMC7838546, “A Thermostable, Modified Cathelicidin-Derived Peptide With Enhanced Membrane-Active Activity Against Salmonella enterica serovar Typhimurium” (Frontiers in Microbiology, 2021).
Ends that are not written are not given here.

Legend:
[1] = system: S. enterica serovar 4,5,12:i:- H2-038 (foodborne isolate); type: cell-based, Salmonella enterica serovar 4,5,12:i:-; conditions: H2-038, pork kidney, resistant Amp, T; for MIC: broth microdilution, 37°C, 24 h
Method: (§1) Salmonella enterica serovar Typhimurium ATCC 13311, 24 drug-resistant foodborne and eleven drug-resistant human borne S. enterica serovar Typhimurium and 4,5,12:i:- isolates (Table 1) were used as test microorganisms. They were previously isolated for molecular characterization in 2014 and kindly provided by Dr. Soraya Chaturongakul (Mahidol University, Thailand) ([Huoy et al., 2014]). All bacteria were cultured in Tryptic Soy Broth (TSB) and incubated at 37°C for 18 h. Mueller Hinton Broth (MHB) was then used to wash and rinse the bacteria. The bacterial suspensions were then diluted to obtain concentrations of 10^7 CFU/ml for inoculations.
(§2) A modified version of the National Committee for Clinical Laboratory Standards (NCCLS) broth microdilution method ([Steinberg et al., 1997]) was used to determine the minimum inhibitory concentrations (MICs) of peptide and compared to that of nisin. Fifty microliters of two-fold serial dilutions of each peptide [0.98–250 μg/ml in 0.01% (v/v) acetic acid and 0.2% (w/v) bovine serum albumin (BSA, Sigma-Aldrich, MO, United States)], were incubated with 50 μl of bacterial suspensions (approximately 10^7 CFU/ml) at 37°C for 24 h in a shaking incubator. MICs were taken as the lowest concentration of peptide at which growth was inhibited as observed by visual inspection. Bacterial cultures without peptides and uncultured broth were used as positive and negative controls, respectively. Minimal bactericidal concentrations (MBCs) were determined using a colony count assay ([Clinical Laboratory Standards Institute [CLSI], 2015]). Fifty microliters of samples from each non-turbid well in the MIC determination experiment was plated on Mueller Hinton Agar (MHA) and colonies were observed after overnight incubation at 37°C. MBCs were designated as the least concentration showing no colony growth on the plate. All of experiments were performed in triplicate.

[2] = system: S. enterica serovar 4,5,12:i:- H2-009 (foodborne isolate); type: cell-based, Salmonella enterica serovar 4,5,12:i:-; conditions: H2-009, pork fat, resistant Amp, C, T, broth microdilution, 37°C, 24 h
Method: as §1, §2

[3] = system: S. enterica serovar 4,5,12:i:- H2-042 (foodborne isolate); type: cell-based, Salmonella enterica serovar 4,5,12:i:-; conditions: H2-042, pork intestine, resistant Amp, C, T, SxT, intermediate Cp; for MIC: broth microdilution, 37°C, 24 h
Method: as §1, §2

[4] = system: S. enterica serovar 4,5,12:i:- H2-043 (foodborne isolate); type: cell-based, Salmonella enterica serovar 4,5,12:i:-; conditions: H2-043, pork heart, resistant Amp, T, intermediate Cp; for MIC: broth microdilution, 37°C, 24 h
Method: as §1, §2

[5] = system: S. enterica serovar 4,5,12:i:- H2-044 (foodborne isolate); type: cell-based, Salmonella enterica serovar 4,5,12:i:-; conditions: H2-044, pork kidney, resistant Amp, C, T, SxT, intermediate Cp; for MIC: broth microdilution, 37°C, 24 h
Method: as §1, §2

[6] = system: S. enterica serovar 4,5,12:i:- H1-024 (clinical isolate); type: cell-based, Salmonella enterica serovar 4,5,12:i:-; conditions: H1-024, rectal swab, resistant Amc, Amp, Ctx, C, NA, SxT, intermediate Cp; for MIC: broth microdilution, 37°C, 24 h
Method: as §1, §2

[7] = system: S. enterica serovar 4,5,12:i:- H2-075 (foodborne isolate); type: cell-based, Salmonella enterica serovar 4,5,12:i:-; conditions: H2-075, pork intestine, resistant Amp, T; for MIC: broth microdilution, 37°C, 24 h
Method: as §1, §2

[8] = system: S. enterica serovar 4,5,12:i:- H2-070 (foodborne isolate); type: cell-based, Salmonella enterica serovar 4,5,12:i:-; conditions: H2-070, pork liver, resistant Amp, Ctx, C, T, SxT, intermediate Cp; for MIC: broth microdilution, 37°C, 24 h
Method: as §1, §2

[9] = system: S. enterica serovar 4,5,12:i:- H2-054 (foodborne isolate); type: cell-based, Salmonella enterica serovar 4,5,12:i:-; conditions: H2-054, pork intestine, resistant Amp, T; for MIC: broth microdilution, 37°C, 24 h
Method: as §1, §2

[10] = system: S. enterica serovar 4,5,12:i:- H1-100 (clinical isolate); type: cell-based, Salmonella enterica serovar 4,5,12:i:-; conditions: H1-100, stool, resistant Amp, C, Cp, T, SxT, intermediate Amc, NA; for MIC: broth microdilution, 37°C, 24 h
Method: as §1, §2

[11] = system: S. enterica serovar 4,5,12:i:- H2-039 (foodborne isolate); type: cell-based, Salmonella enterica serovar 4,5,12:i:-; conditions: H2-039, pork intestine, resistant Amp, T; for MIC: broth microdilution, 37°C, 24 h
Method: as §1, §2

[12] = system: S. enterica serovar 4,5,12:i:- H2-049 (foodborne isolate); type: cell-based, Salmonella enterica serovar 4,5,12:i:-; conditions: H2-049, pork intestine, resistant Amp, T, broth microdilution, 37°C, 24 h
Method: as §1, §2

[13] = system: S. enterica serovar 4,5,12:i:- H2-010 (foodborne isolate); type: cell-based, Salmonella enterica serovar 4,5,12:i:-; conditions: H2-010, pork skin, resistant Amp, C, T, broth microdilution, 37°C, 24 h
Method: as §1, §2

[14] = system: S. enterica serovar 4,5,12:i:- H2-045 (foodborne isolate); type: cell-based, Salmonella enterica serovar 4,5,12:i:-; conditions: H2-045, pork intestine, resistant Amp, T, intermediate Cp; for MIC: broth microdilution, 37°C, 24 h
Method: as §1, §2

[15] = system: S. enterica serovar 4,5,12:i:- H1-102 (clinical isolate); type: cell-based, Salmonella enterica serovar 4,5,12:i:-; conditions: H1-102, stool, resistant Amp, C, T, SxT, intermediate Amc; for MIC: broth microdilution, 37°C, 24 h
Method: as §1, §2

[16] = system: S. enterica serovar Typhimurium H1-011 (clinical isolate); type: cell-based, Salmonella enterica serovar Typhimurium; conditions: H1-011, stool, resistant Amp, T, intermediate Amc, Ctx, Cp, NA; for MIC: broth microdilution, 37°C, 24 h
Method: as §1, §2

Substance	MIC [1]	MIC [2]	MIC [3]	MIC [4]	MIC [5]	MIC [6]	MIC [7]	MIC [8]	MIC [9]	MIC [10]	MIC [11]	MIC [12]	MIC [13]	MIC [14]	MIC [15]	MIC [16]	other results
KIAKRIWKILRR-NH2 [P7]	7.81 (7.81) μg/ml	3.91 µg/mL	7.81 (7.81) μg/ml	7.81 (7.81) μg/ml	7.81 (7.81) μg/ml	3.91 (3.91) μg/ml	7.81 (7.81) μg/ml	7.81 (7.81) μg/ml	7.81 (7.81) μg/ml	7.81 (7.81) μg/ml	3.91 (3.91) μg/ml	3.91 µg/mL	3.91 µg/mL	7.81 (7.81) μg/ml	7.81 (7.81) μg/ml	7.81 (7.81) μg/ml	MBC ([1]; colony count on MHA): 7.81 (7.81) μg/ml; MBC ([3]; colony count on MHA): 7.81 (7.81) μg/ml; MBC ([4]; colony count on MHA): 7.81 (7.81) μg/ml; MBC ([5]; colony count on MHA): 7.81 (7.81) μg/ml; MBC ([6]; colony count on MHA): 3.91 (3.91) μg/ml; MBC ([7]; colony count on MHA): 7.81 (7.81) μg/ml; MBC ([8]; colony count on MHA): 7.81 (7.81) μg/ml; MBC ([9]; colony count on MHA): 7.81 (7.81) μg/ml; MBC ([10]; colony count on MHA): 7.81 (7.81) μg/ml; MBC ([11]; colony count on MHA): 3.91 (3.91) μg/ml; MBC ([14]; colony count on MHA): 7.81 (7.81) μg/ml; MBC ([15]; colony count on MHA): 7.81 (7.81) μg/ml; MBC ([16]; colony count on MHA): 7.81 (7.81) μg/ml
Nisin: authorized food preservative peptide, binds lipid II and forms membrane pores (ITSISLCTPGCKTGALMGCNMKTATCHCSIHVSK; cysteine pairing not given here; also: lantibiotic nisin-A; UniProt P13068 24-57, looked up)	>1000 µg/mL	>1000 µg/mL	>1000 µg/mL	>1000 µg/mL	>1000 µg/mL	>1000 µg/mL	>1000 µg/mL	>1000 µg/mL	>1000 µg/mL	>1000 µg/mL	>1000 µg/mL	>1000 µg/mL	>1000 µg/mL	>1000 µg/mL	>1000 µg/mL	>1000 µg/mL	–
